From patent US8076487B2, “Pyridone derivative and herbicide” (Kumiai Chemical Industry Co., Ltd., priority 2006, dated 2011)

Key:
Type in all cases: in vivo
[1] = test system: Japanese bulrush (Scirpus juncoides Roxb.); assay: Test Example 1: herbicidal effect by soil application to paddy field; conditions: paddy field soil application; active ingredient 1,000 g per 1 hectare; wettable powder added dropwise to water surface the day after sowing; examined on the 21st day after application
In short: (§1)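 Under greenhouse conditions, seeds sown on puddled paddy soil in 100 cm2 pots under 3 cm of standing water received the test compound; injury was assessed with a standard scoring scheme three weeks (day 21) after treatment.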

[2] = test system: heartshape false pickerelweed (Monochoria vaginalis (Burm.f.) C.Presl); assay: as above; conditions: paddy field soil application; active ingredient 1,000 g per 1 hectare; wettable powder added dropwise to water surface the day after sowing; examined on the 21st day after application
In short: as §1

[3] = test system: early watergrass (Echinochloa oryzicola Vasing); assay: as above; conditions: paddy field soil application; active ingredient 1,000 g per 1 hectare; wettable powder added dropwise to water surface the day after sowing; examined on the 21st day after application
In short: as §1

[4] = test system: green foxtail (Setaria viridis (L.) P. Beauv.); assay: Test Example 3: herbicidal effect by application to upland field (foliage treatment); conditions: 14th day after application; for herbicidal effect, Green Foxtail: foliage treatment, 1,000 g active ingredient per 1 hectare, greenhouse; for herbicidal effect (index), Green Foxtail: foliage treatment, plants grown two weeks, 1,000 g active ingredient per hectare
Description: (§2) [table] Test Example 3 Test on Herbicidal Effect by Application to Upland Field In a 80 cm2 plastic pot, field soil was filled. Seeds of barnyardgrass (Echinochloa crus-galli (L.) P. Beauv. var. crus-galli), green foxtail (Setaria viridis (L.) P. Beauv.), velvetleaf (Abutilon theophrasti medicus), and slender amaranth (Amaranthus viridis L.) were sown and allowed to grow for two weeks in a greenhouse. Thereafter, the wettable powder prepared according to Formulation Example 1 was diluted in water and a 1,000 liter equivalent amount per 1 hectare so that the active ingredient becomes 1,000 g per 1 hectare was sprayed using a small sprayer from a top of the plants through its entire body for foliage treatment. Then, on the 14th day after the application to the plants grew in a greenhouse, the herbicidal effect was examined in accordance with a standard shown in Table 34.

[5] = test system: velvetleaf (Abutilon theophrasti medicus); assay: as above; conditions: 14th day after application; for herbicidal effect, Velvetleaf: foliage treatment, 1,000 g active ingredient per 1 hectare, greenhouse; for herbicidal effect (index), Velvetleaf: foliage treatment, plants grown two weeks, 1,000 g active ingredient per hectare
Description: as §2

[6] = test system: barnyardgrass (Echinochloa crus-galli (L.) P. Beauv. var. crus-galli); assay: as above; conditions: 14th day after application; for herbicidal effect, Barnyardgrass: foliage treatment, 1,000 g active ingredient per 1 hectare, greenhouse; for herbicidal effect (index), Barnyardgrass: foliage treatment, plants grown two weeks, 1,000 g active ingredient per hectare
Description: as §2

[7] = test system: slender amaranth (Amaranthus viridis L.); assay: as above; conditions: 14th day after application; for herbicidal effect, Slender Amaranth: foliage treatment, 1,000 g active ingredient per 1 hectare, greenhouse; for herbicidal effect (index), Slender Amaranth: foliage treatment, plants grown two weeks, 1,000 g active ingredient per hectare
Description: as §2

SMILES	herbicidal effect, Scirpus juncoides Roxb. [1]	herbicidal effect, Monochoria vaginalis (Burm. f.) C. Presl [2]	herbicidal effect, Echinochloa oryzicola Vasing [3]	herbicidal effect, Green Foxtail [4]	herbicidal effect, Velvetleaf [5]	herbicidal effect, Barnyardgrass [6]	herbicidal effect, Slender Amaranth [7]	herbicidal effect (index), Green Foxtail [4]	herbicidal effect (index), Velvetleaf [5]	herbicidal effect (index), Barnyardgrass [6]	herbicidal effect (index), Slender Amaranth [7]
CC(=O)Oc1c(C(=O)c2ccc(C(F)(F)F)n(C)c2=O)cnn1C(C)C [IV-220]	5 (90% or more of herbicidal effect and crop phytotoxicity)	5 (90% or more of herbicidal effect and crop phytotoxicity)	5 (90% or more of herbicidal effect and crop phytotoxicity)	3 (50 to less than 70% of herbicidal effect and crop phytotoxicity)	5 (90% or more of herbicidal effect and crop phytotoxicity)	4 (70 to less than 90% of herbicidal effect and crop phytotoxicity)	5 (90% or more of herbicidal effect and crop phytotoxicity)				
COCC(C)n1c(C(F)(F)F)ccc(C(=O)C2=C(O)C3C=CC(C3)C2=O)c1=O (stereo not drawn) [III-44]	5 (90% or more of herbicidal effect and crop phytotoxicity)	5 (90% or more of herbicidal effect and crop phytotoxicity)	5 (90% or more of herbicidal effect and crop phytotoxicity)	5 (90% or more of herbicidal effect and crop phytotoxicity)	5 (90% or more of herbicidal effect and crop phytotoxicity)	4 (70 to less than 90% of herbicidal effect and crop phytotoxicity)	5 (90% or more of herbicidal effect and crop phytotoxicity)				
CC(C)=CCCn1c(C(F)(F)F)ccc(C(=O)C2=C(O)CCCC2=O)c1=O [I-13]	5 (90% or more of herbicidal effect and crop phytotoxicity)	5 (90% or more of herbicidal effect and crop phytotoxicity)	5 (90% or more of herbicidal effect and crop phytotoxicity)					5 (90% or more of herbicidal effect and crop phytotoxicity)	5 (90% or more of herbicidal effect and crop phytotoxicity)	5 (90% or more of herbicidal effect and crop phytotoxicity)	5 (90% or more of herbicidal effect and crop phytotoxicity)
C=C(C)Cn1c(C(F)(F)F)ccc(C(=O)c2cnn(C)c2OC(C)=O)c1=O [IV-180]	5 (90% or more of herbicidal effect and crop phytotoxicity)	5 (90% or more of herbicidal effect and crop phytotoxicity)	5 (90% or more of herbicidal effect and crop phytotoxicity)	4 (70 to less than 90% of herbicidal effect and crop phytotoxicity)	5 (90% or more of herbicidal effect and crop phytotoxicity)	5 (90% or more of herbicidal effect and crop phytotoxicity)	5 (90% or more of herbicidal effect and crop phytotoxicity)				
Cn1ncc(C(=O)c2ccc(C(F)(F)F)n(CCC[S+](C)[O-])c2=O)c1O (stereo not drawn) [IV-58]	4 (70 to less than 90% of herbicidal effect and crop phytotoxicity)	4 (70 to less than 90% of herbicidal effect and crop phytotoxicity)	5 (90% or more of herbicidal effect and crop phytotoxicity)	4 (70 to less than 90% of herbicidal effect and crop phytotoxicity)	4 (70 to less than 90% of herbicidal effect and crop phytotoxicity)	5 (90% or more of herbicidal effect and crop phytotoxicity)	5 (90% or more of herbicidal effect and crop phytotoxicity)				
C=C(C)Cn1c(C(F)(F)F)ccc(C(=O)c2cnn(C)c2O)c1=O [IV-13]	5 (90% or more of herbicidal effect and crop phytotoxicity)	5 (90% or more of herbicidal effect and crop phytotoxicity)	5 (90% or more of herbicidal effect and crop phytotoxicity)	5 (90% or more of herbicidal effect and crop phytotoxicity)	5 (90% or more of herbicidal effect and crop phytotoxicity)	5 (90% or more of herbicidal effect and crop phytotoxicity)	5 (90% or more of herbicidal effect and crop phytotoxicity)				
CCN(C(=O)OC(C)(C)C)n1c(C(F)(F)F)ccc(C(=O)C2=C(O)CCCC2=O)c1=O [I-195]	5 (90% or more of herbicidal effect and crop phytotoxicity)	5 (90% or more of herbicidal effect and crop phytotoxicity)	5 (90% or more of herbicidal effect and crop phytotoxicity)	4 (70 to less than 90% of herbicidal effect and crop phytotoxicity)	5 (90% or more of herbicidal effect and crop phytotoxicity)	5 (90% or more of herbicidal effect and crop phytotoxicity)	3 (50 to less than 70% of herbicidal effect and crop phytotoxicity)				
COc1ccc(-n2c(C(F)(F)F)ccc(C(=O)c3cnn(C)c3O)c2=O)cc1OC [IV-77]	5 (90% or more of herbicidal effect and crop phytotoxicity)	5 (90% or more of herbicidal effect and crop phytotoxicity)	5 (90% or more of herbicidal effect and crop phytotoxicity)	3 (50 to less than 70% of herbicidal effect and crop phytotoxicity)	5 (90% or more of herbicidal effect and crop phytotoxicity)	5 (90% or more of herbicidal effect and crop phytotoxicity)	5 (90% or more of herbicidal effect and crop phytotoxicity)				
O=C(C1=C(O)C2C=CC(C2)C1=O)c1ccc(C(F)(F)F)n(CC2CCCO2)c1=O (stereo not drawn) [III-43]	5 (90% or more of herbicidal effect and crop phytotoxicity)	5 (90% or more of herbicidal effect and crop phytotoxicity)	5 (90% or more of herbicidal effect and crop phytotoxicity)	3 (50 to less than 70% of herbicidal effect and crop phytotoxicity)	5 (90% or more of herbicidal effect and crop phytotoxicity)	5 (90% or more of herbicidal effect and crop phytotoxicity)	5 (90% or more of herbicidal effect and crop phytotoxicity)				
Cn1ncc(C(=O)c2ccc(C(F)(F)F)n(-c3ccc(Cl)cc3)c2=O)c1O [IV-63]	5 (90% or more of herbicidal effect and crop phytotoxicity)	5 (90% or more of herbicidal effect and crop phytotoxicity)	5 (90% or more of herbicidal effect and crop phytotoxicity)	4 (70 to less than 90% of herbicidal effect and crop phytotoxicity)	5 (90% or more of herbicidal effect and crop phytotoxicity)	4 (70 to less than 90% of herbicidal effect and crop phytotoxicity)	5 (90% or more of herbicidal effect and crop phytotoxicity)				
CCC(C)n1c(C(F)(F)F)ccc(C(=O)C2=C(O)C3CCC(C3)C2=O)c1=O (stereo not drawn) [III-8]	5 (90% or more of herbicidal effect and crop phytotoxicity)	5 (90% or more of herbicidal effect and crop phytotoxicity)	5 (90% or more of herbicidal effect and crop phytotoxicity)	5 (90% or more of herbicidal effect and crop phytotoxicity)	5 (90% or more of herbicidal effect and crop phytotoxicity)	5 (90% or more of herbicidal effect and crop phytotoxicity)	3 (50 to less than 70% of herbicidal effect and crop phytotoxicity)				
CSCCCn1c(C(F)(F)F)ccc(C(=O)C2=C(O)CCCC2=O)c1=O [I-69]	5 (90% or more of herbicidal effect and crop phytotoxicity)	5 (90% or more of herbicidal effect and crop phytotoxicity)	5 (90% or more of herbicidal effect and crop phytotoxicity)					5 (90% or more of herbicidal effect and crop phytotoxicity)	5 (90% or more of herbicidal effect and crop phytotoxicity)	5 (90% or more of herbicidal effect and crop phytotoxicity)	5 (90% or more of herbicidal effect and crop phytotoxicity)
